Experimental data taken from the CheMixHub viscosity set.

Test: xn = mol fraction of the nth substance listed

NC=O + CCCCCO
298.15 K, 100 kPa
Settings | viscosity [mPa·s]
x1 = 0.05608 | 3.38
x1 = 0.1142 | 3.39
x1 = 0.2182 | 3.48
x1 = 0.2483 | 3.57
x1 = 0.3487 | 3.73
x1 = 0.3776 | 3.77
x1 = 0.4665 | 3.98
x1 = 0.4951 | 4.02
x1 = 0.5681 | 4.15
x1 = 0.6207 | 4.23
x1 = 0.7099 | 4.32
x1 = 0.7533 | 4.33
x1 = 0.8001 | 4.23
x1 = 0.8518 | 4.07
x1 = 0.9349 | 3.69

OCCCl + CCCCCO
viscosity [mPa·s], 101.33 kPa
Settings | x1 = 0.0959 | x1 = 0.194 | x1 = 0.2912 | x1 = 0.3946 | x1 = 0.4922 | x1 = 0.5939 | x1 = 0.6962 | x1 = 0.8018 | x1 = 0.8986
298.15 K | 3.401 | 3.282 | 3.2 | 3.138 | 3.088 | 3.045 | 3.02 | 2.98 | 2.92
303.15 K | 2.941 | 2.86 | 2.78 | 2.731 | 2.705 | 2.69 | 2.661 | 2.62 | 2.56
308.15 K | 2.58 | 2.5 | 2.441 | 2.401 | 2.384 | 2.378 | 2.34 | 2.323 | 2.25

CCCCCCCCCCC + CCCCO
viscosity [mPa·s], 100 kPa
Settings | x1 = 0.1003 | x1 = 0.1998 | x1 = 0.3006 | x1 = 0.4 | x1 = 0.5006 | x1 = 0.6013 | x1 = 0.6989 | x1 = 0.8018 | x1 = 0.8991
293.15 K | 2.391 | – | 1.749 | 1.549 | 1.398 | – | 1.223 | – | –
298.15 K | 2.107 | – | – | 1.391 | 1.264 | 1.177 | 1.119 | – | –
303.15 K | – | – | 1.399 | 1.257 | 1.15 | 1.076 | 1.028 | 0.997 | 0.974
308.15 K | – | – | 1.261 | 1.141 | 1.05 | 0.99 | 0.949 | 0.923 | –
313.15 K | – | 1.288 | 1.141 | 1.04 | 0.964 | 0.913 | 0.879 | 0.857 | 0.838
318.15 K | – | 1.163 | 1.037 | 0.952 | 0.888 | 0.845 | 0.817 | 0.798 | 0.781
323.15 K | 1.199 | 1.054 | 0.947 | 0.874 | 0.82 | 0.785 | 0.761 | 0.746 | 0.73

CCOC(=O)CCC(=O)OCC + CCCCO
100 kPa
Settings | viscosity [mPa·s]
303.15 K, x1 = 0.1 | 1.845
308.15 K, x1 = 0.6998 | 1.635
313.15 K, x1 = 0.3 | 1.355
318.15 K, x1 = 0.2001 | 1.245
323.15 K, x1 = 0.8997 | 1.435

CN1CCC[C@H]1c1cccnc1 + CCCCO
100 kPa
Settings | viscosity [mPa·s]
298.15 K, x1 = 0.3931 | 3.155
303.15 K, x1 = 0.7 | 3.205
313.15 K, x1 = 0.1 | 1.885

NC=O + CCCCO
Settings | viscosity [mPa·s]
293.15 K, 101 kPa, x1 = 0.1093 | 3.225
298.15 K, 100 kPa, x1 = 0.09212 | 2.58
298.15 K, 100 kPa, x1 = 0.1905 | 2.67
298.15 K, 100 kPa, x1 = 0.2439 | 2.76
298.15 K, 100 kPa, x1 = 0.2798 | 2.82
298.15 K, 100 kPa, x1 = 0.3484 | 2.96
298.15 K, 100 kPa, x1 = 0.4402 | 3.17
298.15 K, 100 kPa, x1 = 0.5809 | 3.46
298.15 K, 100 kPa, x1 = 0.6667 | 3.58
298.15 K, 100 kPa, x1 = 0.7277 | 3.65
298.15 K, 100 kPa, x1 = 0.7869 | 3.66
298.15 K, 100 kPa, x1 = 0.8345 | 3.64
298.15 K, 100 kPa, x1 = 0.8771 | 3.6
298.15 K, 100 kPa, x1 = 0.9257 | 3.53
298.15 K, 100 kPa, x1 = 0.9728 | 3.43

OCCCl + CCCCO
viscosity [mPa·s], 101.33 kPa
Settings | x1 = 0.097 | x1 = 0.1922 | x1 = 0.2941 | x1 = 0.3928 | x1 = 0.4937 | x1 = 0.5925 | x1 = 0.6943 | x1 = 0.7957 | x1 = 0.8961
298.15 K | 2.59 | 2.593 | 2.597 | 2.616 | 2.641 | 2.672 | 2.702 | 2.731 | 2.781
303.15 K | 2.29 | 2.25 | 2.271 | 2.288 | 2.316 | 2.363 | 2.38 | 2.4 | 2.428
308.15 K | 2.028 | 2.029 | 2.026 | 2.027 | 2.047 | 2.075 | 2.1 | 2.12 | 2.14

OCCCl + CCCCOC(C)=O
viscosity [mPa·s], 101.33 kPa
Settings | x1 = 0.1068 | x1 = 0.2078 | x1 = 0.3045 | x1 = 0.4056 | x1 = 0.5002 | x1 = 0.5993 | x1 = 0.7 | x1 = 0.8008 | x1 = 0.8994
298.15 K | 0.718 | 0.784 | 0.865 | 0.97 | 1.105 | 1.286 | 1.549 | 1.919 | 2.359
303.15 K | 0.669 | 0.732 | 0.801 | 0.894 | 1.013 | 1.169 | 1.391 | 1.704 | 2.106
308.15 K | 0.627 | 0.684 | 0.746 | 0.828 | 0.932 | 1.07 | 1.262 | 1.518 | 1.849

CCCCCCCCCCC + CCCCOCCCC
viscosity [mPa·s], 101 kPa
Settings | x2 = 0.1096 | x2 = 0.2089 | x2 = 0.3153 | x2 = 0.4013 | x2 = 0.5046 | x2 = 0.6034 | x2 = 0.7073 | x2 = 0.8109 | x2 = 0.9181
298.15 K | 1.004 | 0.9429 | 0.889 | 0.8479 | 0.8073 | 0.7715 | 0.7333 | 0.7 | 0.6643
308.15 K | 0.8817 | 0.8306 | 0.7845 | 0.7501 | 0.7159 | 0.6891 | 0.6599 | 0.6356 | 0.6114
318.15 K | 0.7547 | 0.7179 | 0.6814 | 0.6523 | 0.624 | 0.5989 | 0.5761 | 0.5579 | 0.5355

NC=O + CCCCn1cc[n+](C)c1.F[B-](F)(F)F
101 kPa
Settings | viscosity [mPa·s]
293.15 K, x2 = 0.7588 | 71.35
303.15 K, x2 = 0.5095 | 21.65

CCOC(=O)CCC(=O)OCC + CCCO
100 kPa
Settings | viscosity [mPa·s]
293.15 K, x1 = 0.3998 | 1.875
313.15 K, x1 = 0.4999 | 1.325
318.15 K, x1 = 0.8997 | 1.545
323.15 K, x1 = 0.3998 | 1.065

OCCCl + CCCO
viscosity [mPa·s], 101.33 kPa
Settings | x1 = 0.099 | x1 = 0.1945 | x1 = 0.2948 | x1 = 0.3912 | x1 = 0.4924 | x1 = 0.5924 | x1 = 0.693 | x1 = 0.8071 | x1 = 0.8959
298.15 K | 1.761 | 1.802 | 1.842 | 1.92 | 2.028 | 2.148 | 2.281 | 2.428 | 2.6
303.15 K | 1.58 | 1.62 | 1.67 | 1.735 | 1.813 | 1.891 | 2.02 | 2.16 | 2.3
308.15 K | 1.4 | 1.44 | 1.48 | 1.542 | 1.606 | 1.678 | 1.76 | 1.88 | 2.001
